In experiment [1] the test system is NCI-N87 gastric cancer xenograft. As to the kind of experiment: Subcutaneous NCI-N87 gastric cancer xenograft model. Format: in vivo, mouse. Here is the method: The animals were fed ad libitum water (reverse osmosis, 1 ppm CI) and NIH 31 Modified and Irradiated Lab Diet® consisting standard rodent chow. The mice were housed on Crushed corncob bedding, autoclaved; changed weekly on a 12-hour light cycle at 20-22° C. (68-72° F.) and 40-60% humidity.
The NCI-N87 tumor cells were maintained in vitro with RMPI 1640 medium supplemented with 10% fetal bovine serum at 37° C. in an atmosphere of 5% CO2 in air. The cells in exponential growth phase were harvested and quantitated by cell counter before tumor inoculation.
Each mouse was inoculated subcutaneously in the right upper flank region with NCI-N87 tumor cells (1×10^7) in PBS mixed with matrigel (1:1) for tumor development. After tumor inoculation, the animals were checked daily for morbidity and mortality. During routine monitoring, the animals were checked for any effects of tumor growth and treatments on behavior such as mobility, food and water consumption, body weight gain/loss (Body weights would be measured two times per week after randomization), eye/hair matting and any other abnormalities. Mortality and observed clinical signs were recorded for individual animals in detail.
Tumor volumes were measured two times per week after randomization in two dimensions using a caliper, and the volume was expressed in mm3 using the formula: V=(L×W×W)/2, where V is tumor volume, L is tumor length (the longest tumor dimension) and W is tumor width (the longest tumor dimension perpendicular to L). Dosing as well as tumor and body weight measurements were conducted in a Laminar Flow Cabinet.
The randomization started when the mean tumor size reached approximately 183 mm3. […]
Each animal was euthanized for tumor progression (TP) when its tumor reached the […] endpoint. The time to endpoint (TTE) for each mouse was calculated with the following equation: TTE=log (endpoint volume)−b/m. […] Any animal determined to have died from treatment-related (TR) causes was to be assigned a TTE value equal to the day of death. […]
Treatment outcome was evaluated from tumor growth delay (TGD), which was defined as the increase in the median TTE for a treatment group compared to the control group: TGD=T−C expressed in days or as a percentage of the median TTE for the control group % TGD=T−C/C×100 where, T=median TTE for a treatment group, C=median TTE for the control group.
Animals were weighed daily on Days 1-5, and then twice weekly until the end of the study. Group mean BW nadirs were determined before more than 50% of the animals in a group exited the study. The mice were observed frequently for health and overt signs of any adverse TR side effects, and clinical observations were recorded, if observed. […]

Experiment [2] concerns HPAFII cells. As to the kind of experiment: Platin after 72 hr LY75_A1 pre-treatment, cell viability (cell-titer glo). Format: cell-based. As to conditions: for viability of cells: HPAFII, ~50 uM oxaliplatin. Here is the method:
(§1) Cells were diluted in excess media and spun down. […] The plate was Incubated for 24 hr at 37° C. to allow cells to adhere and become acclimatized prior to addition of drug. The plates were incubated for 72 hr at 37° C. After 72 hr, the media was removed and replaced with either cisplatin or oxaliplatin at various concentrations (see figures) in 100 ul media before incubation for a further 48 hr.
(§2) After the incubation period, the plate was removed from the incubator and left at room temperature for 30 minutes. Media was removed from the plate which was washed twice with 200 ul PBS. The plate was then treated with cell-titer glo (CTG) following the manufacturer's protocol (Promega, Catalog No. G9681). Briefly, 200 ul CTG solution/well was added before incubating at RT on a plate rotator at low speed for 2 min before incubation in the dark for a further 10 min.
(§3) The plates were removed and the viability under the various conditions calculated.

The test system of experiment [3] is N87 cells. The experiment is described as above. Format: cell-based. As to conditions: for reduction of IC50 in cells pre-treated with LY75_A1: pre-treated with LY75_A1 for 72 hours. As to the method:
as §1, §2, §3

For experiment [4], the system named is HT-29 cells. The description is as above. Format: cell-based. Here is the method: as §1, §2, §3
For experiment [5], the target named is T1, LY75 (DEC-205), lymphocyte antigen 75 (human, UniProt O60449 28-1722).
T1 construct: Endogenous LY75 in human tumour tissue sections and on human tumour cell lines
As to the kind of experiment: immunohistochemistry on FFPE human tumour tissue sections. As to the method: (§4) Using the human monoclonal antibodies specific to LY75, immunohistochemistry was performed on FFPE HT-29 and A549 cell pellets, FFPE non-Hodgkin's lymphoma and pancreatic cancer arrays, and fresh frozen lymphoma/leukaemia tumours, ovarian cancer, pancreatic cancer, and breast cancer sections and a normal tissue array.
(§5) The LY75 antigen was retrieved using microwave heat, high power until boiling then low power for 10 minutes in 50 mL 1×citrate buffer in a Coplin jar. Slides were then left to cool to room temperature for a further 15 min, then washed in tap water, 3 minutes. Circles were drawn around each tissue section/TMA with a hydrophobic barrier pen and slides were then washed 3 times in PBS, 3 minutes each wash.
Meanwhile, endogenous tissue peroxidase activity was blocked by incubating tissues with peroxidase suppressor for 5-10 minutes at RT in a humidified chamber. Slides were then washed in PBS 3×3 minutes each wash. Tissues were incubated in SFPB for 30 minutes at room temperature in a humidified chamber. Final staining complexes were applied to each tissue section and/or microarray, and the slides were incubated for 30 min at room temperature in a humidified chamber. Slides were then washed once in PBS and once in PBST (PBS+0.125% Tween-20), 3 minutes each wash. […]

Experiment [6] has as its target T2, LY75 (Homo sapiens, UniProt O60449).
T2 construct: tissue US Biomax Inc. or Origene; host or cells: FFPE triple negative breast cancer tissue sections/arrays
As to the kind of experiment: Immunohistochemistry with anti-LY75 antibody on FFPE Triple Negative breast cancer samples. Here is the method:
as §4
FFPE slides were deparaffinised in xylene (2×3 minutes) then rehydrated through 1:1 xylene: 100% ethanol (1×3 minutes), 100% ethanol (2×3 minutes), 95% ethanol (1×3 minutes), 70% ethanol (1×3 minutes), 50% ethanol (1×3 minutes), and tap water (1×3 minutes).
as §5
The primary anti-LY75 antibody was diluted in serum free protein block (SFPB) to obtain a solution with a concentration 20-fold greater than the final desired concentration (20 μg/mL for 1 μg/mL final). The secondary antibody, goat anti-human immunoglobulin G (IgG) antigen-binding fragment (Fab), was prepared similarly in SFPB to create a solution of equal concentration. […]

Setting [7] is: single agent, single i.v. dose day 1 (OBT076 1 mg/kg; Oxaliplatin 5 mg/kg).
[8] abbreviates: N87 cells pretreated with 1 nM LY75_A1 for 72 hours.
[9] abbreviates: N87 cells pretreated with 10 nM LY75_A1 for 72 hours.
Setting [10] is: HT29 cells pretreated with 0.5 nM LY75_A1 for 72 hours.
The mark [11] stands for this setting: HT29 cells pretreated with 2 nM LY75_A1 for 72 hours.

T2 sequence (O60449 28-1722): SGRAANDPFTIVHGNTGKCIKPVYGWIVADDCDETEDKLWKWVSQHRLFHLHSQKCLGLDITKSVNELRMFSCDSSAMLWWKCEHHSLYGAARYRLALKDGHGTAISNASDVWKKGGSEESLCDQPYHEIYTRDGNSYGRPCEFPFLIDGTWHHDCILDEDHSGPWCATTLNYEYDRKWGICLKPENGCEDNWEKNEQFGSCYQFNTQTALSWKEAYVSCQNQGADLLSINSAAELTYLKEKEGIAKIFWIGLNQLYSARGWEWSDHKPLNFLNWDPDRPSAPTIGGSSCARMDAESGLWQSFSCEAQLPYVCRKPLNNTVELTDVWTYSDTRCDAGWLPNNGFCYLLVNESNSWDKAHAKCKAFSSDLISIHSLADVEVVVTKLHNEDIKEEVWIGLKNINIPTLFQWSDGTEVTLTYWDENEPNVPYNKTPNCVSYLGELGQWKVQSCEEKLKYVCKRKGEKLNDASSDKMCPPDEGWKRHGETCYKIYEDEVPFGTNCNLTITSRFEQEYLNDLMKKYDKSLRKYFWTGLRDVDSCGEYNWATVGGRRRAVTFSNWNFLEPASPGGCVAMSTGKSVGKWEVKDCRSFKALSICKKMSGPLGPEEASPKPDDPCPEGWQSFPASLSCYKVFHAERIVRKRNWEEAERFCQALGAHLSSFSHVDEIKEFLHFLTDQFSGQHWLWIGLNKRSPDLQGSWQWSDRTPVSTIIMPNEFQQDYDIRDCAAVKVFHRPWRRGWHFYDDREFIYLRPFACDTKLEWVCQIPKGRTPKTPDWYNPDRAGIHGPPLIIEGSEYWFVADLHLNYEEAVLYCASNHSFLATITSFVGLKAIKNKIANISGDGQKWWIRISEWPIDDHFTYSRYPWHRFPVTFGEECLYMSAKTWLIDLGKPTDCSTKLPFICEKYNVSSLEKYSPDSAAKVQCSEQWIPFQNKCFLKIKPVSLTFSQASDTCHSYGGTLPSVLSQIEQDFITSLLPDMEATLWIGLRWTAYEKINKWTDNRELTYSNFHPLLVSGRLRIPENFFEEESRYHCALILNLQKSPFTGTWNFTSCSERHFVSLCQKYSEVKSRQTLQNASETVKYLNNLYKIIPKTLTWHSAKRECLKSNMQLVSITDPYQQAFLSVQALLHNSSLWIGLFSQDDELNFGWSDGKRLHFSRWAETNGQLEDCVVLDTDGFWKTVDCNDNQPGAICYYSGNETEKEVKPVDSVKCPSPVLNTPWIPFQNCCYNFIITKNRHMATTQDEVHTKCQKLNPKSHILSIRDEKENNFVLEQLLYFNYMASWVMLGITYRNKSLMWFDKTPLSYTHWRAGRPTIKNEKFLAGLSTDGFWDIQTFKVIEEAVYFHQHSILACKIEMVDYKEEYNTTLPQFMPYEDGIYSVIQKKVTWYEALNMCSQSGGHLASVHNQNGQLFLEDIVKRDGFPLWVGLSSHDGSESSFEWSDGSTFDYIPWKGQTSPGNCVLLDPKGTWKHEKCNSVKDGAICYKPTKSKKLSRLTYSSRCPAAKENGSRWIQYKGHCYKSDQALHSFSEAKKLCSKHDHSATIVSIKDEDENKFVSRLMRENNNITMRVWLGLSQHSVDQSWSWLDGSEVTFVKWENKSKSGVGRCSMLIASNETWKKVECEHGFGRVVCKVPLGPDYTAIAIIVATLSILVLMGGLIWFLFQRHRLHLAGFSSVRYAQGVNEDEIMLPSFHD
T1 sequence (O60449 28-1722 limits assumed): as the sequence (O60449 28-1722) above

With `O=C1[O][Pt]2([NH][C@@H]3CCCC[C@H]3[NH]2)[O]C1=O` [Oxaliplatin], in experiment [1] (by Day 81, single agent alone), the “mice that had died” value is roughly 71%. For the same molecule, in experiment [1] (setting [7]), the “TGI on day 60” value amounted to 0.49%. Moreover, the “Tumor Size (mm^3) on day 60” value in experiment [1] (setting [7]) is reported as 1969.92 +/− 258.93 mm^3. The “% Survival” value in experiment [1] (to Day 81, single agent, single i.v. dose day 1 (OBT076 1 mg/kg; Oxaliplatin 5 mg/kg)) amounted to 28.57%. For the same molecule, the IC50 in experiment [2] (HPAFII cells pretreated with 1 nM LY75_A1 for 72 hours) is 85.4 µM; in experiment [2] (HPAFII cells pretreated with 3 nM LY75_A1 for 72 hours), 62.1 µM; in experiment [2] (HPAFII cells pretreated with 10 nM LY75_A1 for 72 hours) it was 58.8 µM; in experiment [2] (HPAFII cells, oxaliplatin alone, 48 hr), roughly 256 µM; in experiment [3] (setting [8]) it was 14.1 µM; in experiment [3] (setting [9]) it was 1 µM. In addition, the IC50 in experiment [3] (N87 cells, oxaliplatin alone, 48 hr) was determined as 44.5 µM; in experiment [4] (setting [10]), 55.1 µM; in experiment [4] (setting [11]), 32.7 µM; in experiment [4] (HT29 cells, oxaliplatin alone, 48 hr) it was 66.8 µM. In addition, the “reduction of IC50 in cells pre-treated with LY75_A1” value in experiment [2] (HPAFII cells, pre-treated with LY75_A1 for 72 hours) was “approximately 4 fold”; in experiment [3] (N87 cells) it was 44 fold. The viability of cells entry in experiment [2] (not pre-treated, FIG. 5C) is on record as “no cell death”; in experiment [2] (pre-treated with all concentrations (1, 3, 10 nM) of LY75_A1, FIG. 5C), “significantly lower than those which are not pre-treated”; in experiment [3] (N87, ~10 uM oxaliplatin, not pre-treated, FIG. 5D), “no cell death”; in experiment [3] (N87, ~10 uM oxaliplatin, pre-treated with 1 or 10 nM LY75_A1, FIG. 5D), “significantly lower than those which are not pre-treated”; in experiment [4] (HT-29, ~10 uM oxaliplatin, not pre-treated, FIG. 5A) it was “no cell death”; in experiment [4] (HT-29, ~10 uM oxaliplatin, pre-treated with 2 nM LY75_A1, FIG. 5A), “significantly lower than those which are not pre-treated”.

With `N.N.[Cl][Pt][Cl]` [Cisplatin, cis-diamminedichloroplatinum(II)], the viability of cells entry in experiment [3] (N87, ~3 uM cisplatin, not pre-treated, FIG. 5E) was “no cell death”; in experiment [3] (N87, ~3 uM cisplatin, pre-treated with 1 or 10 nM LY75_A1, FIG. 5E) it was “significantly lower than those which are not pre-treated”; in experiment [4] (HT-29, ~10 uM cisplatin, not pre-treated, FIG. 5B) it was “no cell death”; in experiment [4] (HT-29, ~10 uM cisplatin, pre-treated with 2 nM LY75_A1, FIG. 5B), “significantly lower than those which are not pre-treated”. Moreover, the IC50 in experiment [3] (setting [8]) was 3.5 µM; in experiment [3] (setting [9]) it was 0.9 µM; in experiment [3] (N87 cells, cisplatin alone, 48 hr), 10 µM; in experiment [4] (setting [10]), 44.6 µM; in experiment [4] (setting [11]), 18.7 µM; in experiment [4] (HT29 cells, cisplatin alone, 48 hr) it was 44.7 µM. In addition, the “reduction of IC50 in cells pre-treated with LY75_A1” value in experiment [3] (N87 cells) is recorded as 10 fold.

B1: LY75_A1 monoclonal antibody (antibody, human IgG1, kappa, V domains shown)
VH: EVQLVESGGGLVKPGGSLRLSCAASGFTYSNAWMSWVRQAPGKGLEWVGRIKSKTDGGTTDYAAPVQGRFTISRDDSKNTLYLQMNSLKTEDTAVYYCTIFGVVSFDYWGQGTLVTVSS
VL: DVQMTQSPSSLSASVGDRVTITCRASQSISDYLSWYQQRPGKAPNLLIYAASNLKTGVPSRFSGSGSGTDFTLTISTLQPEDFATYYCQQSYRSPWTFGQGTKVEIKR
notes: Human antibody, detected with goat anti-human IgG Fab in the immunohistochemistry; also called anti-LY75_A1
In the case of B1, the binding result in experiment [5] is recorded as “binds”. Besides, in experiment [6], the “sections exhibited robust (+++) staining” value was 55% and the “sections showed positive staining” value came out at 77%.

For the origin of these results see patent US20250073346A1, “PHARMACEUTICAL COMBINATIONS” (Oxford Bio Therapeutics Ltd, priority 2021, published 2025).
